These results are taken from EP4610269A1, “UROKINASE PLASMINOGEN ACTIVATOR SURFACE RECEPTOR (UPAR) LIGANDS FOR DIAGNOSTIC OR THERAPEUTIC USE” (3B Pharmaceuticals GmbH, priority 2024, dated 2025).

One assay has as its target T1, human uPAR (uPAR-Fc) (Homo sapiens, UniProt Q03405).
T1 construct: comprising amino acids Leu23-Arg303 according to UniProt entry Q03405.1; purchased R&D Systems 10378-UK-100
In words: Surface plasmon resonance (SPR) assay, single cycle kinetics. It counts as binding. Particulars: pKD category for uPAR SPR activity assay, uPAR-Fc on Protein A-Chip, 25°C; for Kd: read-out: pKD CAT (converted). The method in brief: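 uPAR-Fc (Leu23-Arg303 extracellular domains, human IgG1 Fc) captured on Protein A chip to ~2000 RU; single-cycle kinetics at 25°C in HEPES running buffer pH 7.4 with 0.1% DMSO. KD from double-referenced sensorgrams fitted to 1:1 Langmuir model, reported as pKD.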

Assay [1] concerns the target T2, uPAR-expressing HEC-265 human endometrial adenocarcinoma cells (Homo sapiens, UniProt Q03405).
T2 construct: Cell surface uPAR-expressing HEC-265 human endometrial adenocarcinoma cells; host or cells: HEC-265
As to the kind of experiment: Competitive FACS binding assay. Conditions: pIC50 category of FACS binding. The method in brief: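 Competitive displacement of a 10 nM biotinylated peptide from HEC-265 cells (1 h, 4 °C, PBS/1% BSA), detected via APC-streptavidin by flow cytometry. pIC50 from four-parameter logistic fit of median fluorescence versus concentration.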

Read-outs that look alike come from different tables or passages of the source. Where a SMILES comes first, the peptide text is derived from it. Bridges are numbered along the chain shown (N, C = ends). Side-chain parts run from the residue outwards. [ ]: non-standard residue; d: D form. The star is where a group is joined. DOTA = O=C(O)CN1CCN(CC(=O)O)CCN(CC(=O)*)CCN(CC(=O)O)CC1; Lys(Me3) = C[N+](C)(C)CCCC[C@H](N)C(=O)O; Pro(cis-4-F) = O=C(O)[C@@H]1C[C@H](F)CN1; Dopa = N[C@@H](Cc1ccc(O)c(O)c1)C(=O)O; Hyp = O=C(O)[C@@H]1C[C@@H](O)CN1; hPhe = N[C@@H](CCc1ccccc1)C(=O)O; LaDOTA = La(III) DOTA conjugate; Pentanoyl(4-Me) = CC(C)CCC(=O)*; Cit = NC(=O)NCCC[C@H](N)C(=O)O; Butoxycarbonyl = CCCCOC(=O)*; Chg = N[C@H](C(=O)O)C1CCCCC1; Propanoyl(3-OH) = O=C(CCO)*; Dab = NCC[C@H](N)C(=O)O; Nva = CCC[C@H](N)C(=O)O; Hexanoyl = CCCCCC(=O)*; Pentanoyl = CCCCC(=O)*; Aib = CC(C)(N)C(=O)O Some results are limits rather than exact numbers.

T2 sequence (Q03405 23-335): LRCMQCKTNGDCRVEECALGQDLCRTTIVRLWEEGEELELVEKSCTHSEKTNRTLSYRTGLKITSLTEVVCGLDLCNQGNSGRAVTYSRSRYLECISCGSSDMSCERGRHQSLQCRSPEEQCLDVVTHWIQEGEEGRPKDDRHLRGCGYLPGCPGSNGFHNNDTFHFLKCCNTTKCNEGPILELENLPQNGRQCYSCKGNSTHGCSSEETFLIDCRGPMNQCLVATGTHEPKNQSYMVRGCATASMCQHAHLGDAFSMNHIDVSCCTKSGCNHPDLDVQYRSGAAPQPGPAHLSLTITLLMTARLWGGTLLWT
T1 sequence (Q03405 23-303): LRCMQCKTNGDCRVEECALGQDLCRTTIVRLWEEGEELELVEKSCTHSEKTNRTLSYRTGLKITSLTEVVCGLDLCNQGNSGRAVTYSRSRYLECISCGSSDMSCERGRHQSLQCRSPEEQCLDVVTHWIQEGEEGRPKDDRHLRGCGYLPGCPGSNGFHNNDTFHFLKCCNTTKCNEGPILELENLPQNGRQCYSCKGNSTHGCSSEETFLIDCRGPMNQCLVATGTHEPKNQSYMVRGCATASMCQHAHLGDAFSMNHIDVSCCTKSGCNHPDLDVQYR

`CCCCCC(=O)N[C@@H](CC(=O)O)C(=O)N[C@@H](CC(C)C)C(=O)N[C@H]1CSSC[C@@H](C(N)=O)NC(=O)[C@H](CC(C)C)NC(=O)[C@H]([C@@H](C)CC)NC(=O)[C@H](C)NC(=O)[C@@H]2CCCN2C(=O)[C@H](Cc2ccccc2)NC(=O)[C@H](Cc2ccc(O)cc2)NC(=O)[C@H](CCSC)NC(=O)[C@H](CCCNC(=N)N)NC1=O` [UPAR-363, Hex-Asp-Leu-[Cys-Arg-Met-Tyr-Phe-Pro-Ala-Ile-Leu-Cys]-NH2] (Hexanoyl-DLCRMYFPAILC-NH2; disulfide 3-12): at human uPAR (uPAR-Fc) (single cycle kinetics), the Kd was less than 1.58 nM. In assay [1], this compound showed an IC50 not above 10 nM.
As for `CC(C)CCC(=O)N[C@H]1CSSC[C@@H](C(N)=O)NC(=O)[C@H](CC(C)C)NC(=O)[C@H](C2CCCCC2)NC(=O)[C@@H](C)NC(=O)[C@@H]2CCCN2C(=O)[C@H](Cc2ccccc2)NC(=O)[C@H](Cc2ccc(O)cc2)NC(=O)[C@H](CCC(N)=O)NC(=O)[C@H](CCCNC(N)=O)NC1=O` [UPAR-225, iHex-[Cys-Cit-Gln-Tyr-Phe-Pro-ala-Chg-Leu-Cys]-NH2] ({Pentanoyl(4-Me)}-C[Cit]QYFP[dA][Chg]LC-NH2; disulfide 1-10), the Kd at human uPAR (uPAR-Fc) is less than 1.58 nM. Also, the IC50 in assay [1] was not above 10 nM.
As to “Pent-[Cys-KMe3-Lys(LaDOTA)-Tyr-Phe-Pro-Hyp-Ile-Nva-Cys]-NH2 (Pentanoyl-C[Lys(Me3)]K(LaDOTA)YFP[Hyp]I[Nva]C-NH2; disulfide 1-10; not fully specified; also: La(III) complexed by DOTA) [UPAR-183]”, in the assay with human uPAR (uPAR-Fc), the “pKD CAT” value is on record as “A (pKD values ≥ 8.8)”. The “pIC50 CAT” value in assay [1] is on record as “A (pIC50 values ≥8.0)”.
With `CC[C@H](C)[C@@H]1NC(=O)[C@@H](C)NC(=O)[C@@H]2CCCN2C(=O)[C@H](Cc2ccccc2)NC(=O)[C@H](Cc2ccc(O)cc2)NC(=O)[C@H](CCC(N)=O)NC(=O)[C@H](CCCNC(N)=O)NC(=O)[C@@H](NC(=O)CCO)CSSC[C@@H](C(N)=O)NC(=O)[C@H](CC(C)C)NC1=O` [UPAR-272, HPA-[Cys-Cit-Gln-Tyr-Phe-Pro-ala-Ile-Leu-Cys]-NH2] ({Propanoyl(3-OH)}-C[Cit]QYFP[dA]ILC-NH2; disulfide 1-10), the Kd at human uPAR (uPAR-Fc) was more than 100 nM. In assay [1], the IC50 was 39.8 to 100 nM.
Regarding `CCCCC(=O)N[C@H]1CSSC[C@@H](C(=O)NCC(N)=O)NC(=O)[C@H](CCC)NC(=O)[C@H]([C@@H](C)CC)NC(=O)[C@@H]2C[C@@H](O)CN2C(=O)[C@@H]2CCCN2C(=O)[C@H](Cc2ccccc2)NC(=O)[C@H](Cc2ccc(O)cc2)NC(=O)[C@H](CCC(N)=O)NC(=O)[C@H](CCCNC(N)=O)NC1=O` [UPAR-206, Pent-[Cys-Cit-Gln-Tyr-Phe-Pro-Hyp-Ile-Nva-Cys]-Gly-NH2] (Pentanoyl-C[Cit]QYFP[Hyp]I[Nva]CG-NH2; disulfide 1-10), the Kd on human uPAR (uPAR-Fc) is 1.58 to 10 nM. This compound had an IC50 in assay [1] of 12.6 to 31.6 nM.
For `CCCCC(=O)N[C@H]1CSSC[C@@H](C(N)=O)NC(=O)[C@H](CCC)NC(=O)[C@H]([C@@H](C)CC)NC(=O)[C@@H]2C[C@@H](O)CN2C(=O)[C@@H]2CCCN2C(=O)[C@H](Cc2ccccc2)NC(=O)[C@H](Cc2ccc(O)cc2)NC(=O)[C@H](CCCCN)NC(=O)[C@H](CCCNC(=N)N)NC1=O` [UPAR-448, Pent-[Cys-Arg-Lys-Tyr-Phe-Pro-Hyp-Ile-Nva-Cys]-NHz] (Pentanoyl-CRKYFP[Hyp]I[Nva]C-NH2; disulfide 1-10), the Kd at human uPAR (uPAR-Fc) (single cycle kinetics) is less than 1.58 nM. In addition, the IC50 in assay [1] was not above 10 nM.
As to `CCCCOC(=O)N[C@H]1CSSC[C@@H](C(N)=O)NC(=O)[C@H](CCC)NC(=O)[C@H]([C@@H](C)CC)NC(=O)[C@@H]2C[C@@H](O)CN2C(=O)[C@@H]2C[C@H](F)CN2C(=O)[C@H](Cc2ccccc2)NC(=O)[C@H](Cc2ccc(O)cc2)NC(=O)[C@H](CCNC(=O)CN2CCN(CC(=O)O)CCN(CC(=O)O)CCN(CC(=O)O)CC2)NC(=O)[C@H]([C@@H](C)O)NC1=O` [UPAR-228, Butoc-[Cys-Thr-Dab(DOTA)-Tyr-Phe-4Cfp-Hyp-Ile-Nva-Cys]-NH2] (Butoxycarbonyl-CT[Dab](DOTA)YF[Pro(cis-4-F)][Hyp]I[Nva]C-NH2; disulfide 1-10), the Kd on human uPAR (uPAR-Fc) was less than 1.58 nM. Besides, the IC50 in assay [1] was not above 10 nM.
On to `CCCCOC(=O)N[C@H]1CSSC[C@@H](C(N)=O)NC(=O)[C@H](CCC)NC(=O)[C@H]([C@@H](C)CC)NC(=O)[C@@H]2C[C@@H](O)CN2C(=O)[C@@H]2C[C@H](F)CN2C(=O)[C@H](Cc2ccccc2)NC(=O)[C@H](Cc2ccc(O)c(O)c2)NC(=O)[C@H](CCCCNC(=O)[C@@H](CC(=O)O)NC(=O)CN2CCN(CC(=O)O)CCN(CC(=O)O)CCN(CC(=O)O)CC2)NC(=O)[C@H]([C@@H](C)O)NC1=O` [UPAR-459, Butoc-[Cys-Thr-Lys(DOTA-asp)-Dopa-Phe-4Cfp-Hyp-Ile-Nva-Cys]-NH2] (Butoxycarbonyl-CTK([dD-DOTA])[Dopa]F[Pro(cis-4-F)][Hyp]I[Nva]C-NH2; disulfide 1-10), for which the Kd on human uPAR (uPAR-Fc) (single cycle kinetics) is less than 1.58 nM. In assay [1], the IC50 was not above 10 nM.
Take `CCCCOC(=O)N[C@H]1CSSC[C@@H](C(N)=O)NC(=O)[C@H](CCC)NC(=O)[C@H]([C@@H](C)CC)NC(=O)[C@@H]2C[C@@H](O)CN2C(=O)[C@@H]2C[C@H](F)CN2C(=O)[C@H](Cc2ccccc2)NC(=O)[C@H](Cc2ccc(O)cc2)NC(=O)[C@H](CCCCNC(=O)[C@@H](CC(=O)O)NC(=O)CN2CCN(CC(=O)O)CCN(CC(=O)O)CCN(CC(=O)O)CC2)NC(=O)[C@H]([C@@H](C)O)NC1=O` [UPAR-424, Butoc-[Cys-Thr-Lys(DOTA-asp)-Tyr-Phe-4Cfp-Hyp-Ile-Nva-Cys]-NHz] (Butoxycarbonyl-CTK([dD-DOTA])YF[Pro(cis-4-F)][Hyp]I[Nva]C-NH2; disulfide 1-10): at human uPAR (uPAR-Fc) (single cycle kinetics), the Kd is less than 1.58 nM. The same compound showed an IC50 in assay [1] not above 10 nM.
For `CCCCC(=O)N[C@H]1CSSC[C@@H](C(N)=O)NC(=O)[C@H](CCC)NC(=O)[C@H]([C@@H](C)CC)NC(=O)[C@@H]2C[C@@H](O)CN2C(=O)C(C)(C)NC(=O)[C@H](Cc2ccccc2)NC(=O)[C@H](Cc2ccc(O)cc2)NC(=O)[C@H](CCCCNC(=O)CN2CCN(CC(=O)O)CCN(CC(=O)O)CCN(CC(=O)O)CC2)NC(=O)[C@H]([C@@H](C)O)NC1=O` [UPAR-419, Pent-[Cys-Thr-Lys(DOTA)-Tyr-Phe-Aib-Hyp-Ile-Nva-Cys]-NH2] (Pentanoyl-CTK(DOTA)YF[Aib][Hyp]I[Nva]C-NH2; disulfide 1-10) the same measures were 10 to 100 nM and 12.6 to 31.6 nM.
On the same counts, the results for `CCC[C@@H]1NC(=O)[C@H]([C@@H](C)CC)NC(=O)[C@@H]2C[C@@H](O)CN2C(=O)[C@@H]2CCCN2C(=O)[C@H](Cc2ccccc2)NC(=O)[C@H](Cc2ccc(O)cc2)NC(=O)[C@H](CCC(N)=O)NC(=O)[C@H](CCCNC(=N)N)NC(=O)[C@@H](NC(=O)[C@H](CCc2ccccc2)NC(C)=O)CSSC[C@@H](C(N)=O)NC1=O` [UPAR-484, Ac-Hfe-[Cys-Arg-Gln-Tyr-Phe-Pro-Hyp-Ile-Nva-Cys]-NH2] (Ac-[hPhe]CRQYFP[Hyp]I[Nva]C-NH2; disulfide 2-11) are 1.58 to 10 nM and not above 10 nM.
Consider `CC[C@H](C)[C@@H]1NC(=O)[C@@H](C)NC(=O)[C@@H]2CCCN2C(=O)[C@H](Cc2ccccc2)NC(=O)[C@H](Cc2ccc(O)cc2)NC(=O)[C@H](CCC(N)=O)NC(=O)[C@@H](CCCCNC(=O)CN2CCN(CC(=O)O)CCN(CC(=O)O)CCN(CC(=O)O)CC2)NC(=O)[C@@H](NC(=O)CCC(C)C)CSSC[C@@H](C(N)=O)NC(=O)[C@H](CC(C)C)NC1=O` [UPAR-130, iHex-[Cys-lys(DOTA)-Gln-Tyr-Phe-Pro-ala-Ile-Leu-Cys]-NH2] ({Pentanoyl(4-Me)}-C[dK](DOTA)QYFP[dA]ILC-NH2; disulfide 1-10), for which the Kd on human uPAR (uPAR-Fc) was more than 100 nM. In addition, the IC50 in assay [1] is not below 126 nM.
